Assay results published in patent US20230159453A1 (COCRYSTAL PHARMA, INC., priority 2020, published 2023).

These compounds were tested against SARS2 protease (Severe acute respiratory syndrome coronavirus 2, UniProt P0DTD1) (assay: SARS-CoV-2 protease inhibition assay (SARS2 FRET protease assay)). Conditions: SARS-CoV-2 protease 25 nM, FRET, peptide substrate 1.3 μM, 30 minutes at 30° C., compounds 20 μM to 1.0 nM; read-out: IC50.
Type: biochemical
Work on `CCCCCCOC(=O)N[C@@H](CC1CCCCC1)C(=O)N[C@H](C=O)CCC(=O)N1CCOc2ccccc2C1` [Compound C26, Hexyl ((S)-3-cyclohexyl-1-(((S)-5-(2,3-dihydrobenzo[f][1,4]oxazepin-4(5H)-yl)-1,5-dioxopentan-2-yl)amino)-1-oxopropan-2-yl)carbamate] yielded an IC50 of over 200000 nM.
`CCOP(=O)(OCC)C(O)C(CC1CC2(CCN(C(C)=O)CC2)NC1=O)NC(=O)[C@H](CC(C)C)NC(=O)OCC1CCC(F)(F)CC1` (stereo partly drawn) [Compound C95, (4,4-Difluorocyclohexyl)methyl ((2S)-1-((3-(8-acetyl-2-oxo-1,8-diazaspiro[4.5]decan-3-yl)-1-(diethoxyphosphoryl)-1-hydroxypropan-2-yl)amino)-4-methyl-1-oxopentan-2-yl)carbamate] showed an IC50 of 7000 nM.
In the case of `CC(C)(c1cccc(Cl)c1)C(OC(=O)N[C@@H](CC1CCCCC1)C(=O)N[C@H](C=O)C[C@@H]1CCNC1=O)c1ccccc1Cl` (stereo partly drawn) [Compound C160, 1-(2-chlorophenyl)-2-(3-chlorophenyl)-2-methylpropyl ((S)-3-cyclohexyl-1-oxo-1-(((S)-1-oxo-3-((S)-2-oxopyrrolidin-3-yl)propan-2-yl)amino)propan-2-yl) carbamate], the IC50 is reported as 24.7 nM.
Work on `CC(C)C[C@H](NC(=O)OC(C)Cc1ccccc1)C(=O)N[C@H](C=O)C[C@@H]1CCNC1=O` (stereo partly drawn) [Compound C39, 1-Phenylpropan-2-yl ((S)-4-methyl-1-oxo-1-(((S)-1-oxo-3-((S)-2-oxopyrrolidin-3-yl)propan-2-yl)amino)pentan-2-yl)carbamate] yielded an IC50 of 153 nM.
`CC(C)C[C@H](NC(=O)OC(c1ccccc1)C(C)(C)c1cccc(Cl)c1)C(=O)N[C@@H](C[C@@H]1CCNC1=O)C(=O)C(=O)N1CCN(C(=O)OC(C)(C)C)CC1` (some centres unmarked) [Compound C261] showed an IC50 of 17000 nM.
In the case of `CCOP(=O)(OCC)C(O)[C@H](CCC(=O)N1CCNC(c2ccccc2)C1)NC(=O)[C@H](CC1CCCCC1)NC(=O)OCc1cccc(Cl)c1` (stereo partly drawn) [Compound C12, 3-Chlorobenzyl ((2S)-3-cyclohexyl-1-(((2S)-1-(diethoxyphosphoryl)-1-hydroxy-5-oxo-5-(3-phenylpiperazin-1-yl)pentan-2-yl)amino)-1-oxopropan-2-yl)carbamate], the IC50 is reported as over 200000 nM.
Compound `CC(C)C[C@H](NC(=O)OC(c1ccccc1)C(F)(F)c1cccc(Cl)c1)C(=O)N[C@@H](C[C@@H]1CCNC1=O)C(=O)C(N)=O` (some centres unmarked) [Compound C251] has an IC50 of 0.008 nM.
`CC(C)C(=O)N1CCC2(CC1)CC(CC(NC(=O)[C@H](CC1CCCCC1)NC(=O)c1cc3ccccc3[nH]1)C(=O)C(N)=O)C(=O)N2` (stereo partly drawn) [Compound C138, N-((2S)-1-((4-amino-1-(8-isobutyryl-2-oxo-1,8-diazaspiro[4.5]decan-3-yl)-3,4-dioxobutan-2-yl)amino)-3-cyclohexyl-1-oxopropan-2-yl)-1H-indole-2-carboxamide] gave an IC50 of 245 nM.
`CCCCCCCOC(=O)N[C@@H](CC1CCCCC1)C(=O)N[C@@H](CCC(=O)N1CCOc2ccccc2C1)C(O)P(=O)(OCC)OCC` (stereo partly drawn) [Compound C14, Heptyl ((2S)-3-cyclohexyl-1-(((2S)-1-(diethoxyphosphoryl)-5-(2,3-dihydrobenzo[f][1,4]oxazepin-4(5H)-yl)-1-hydroxy-5-oxopentan-2-yl)amino)-1-oxopropan-2-yl)carbamate] gave an IC50 of over 200000 nM.
`CC(C)C[C@H](NC(=O)OC1(Cc2ccccc2)CCC1)C(=O)N[C@@H](C[C@@H]1CCNC1=O)C(=O)CCl` [Compound C194, 1-Benzylcyclobutyl ((S)-1-(((S)-4-chloro-3-oxo-1-((S)-2-oxopyrrolidin-3-yl)butan-2-yl)amino)-4-methyl-1-oxopentan-2-yl) carbamate] gave an IC50 of 485 nM.
`CCOP(=O)(OCC)C(O)C(CC1CC2(CCN(C(C)=O)CC2)NC1=O)NC(=O)[C@H](Cc1cccc(F)c1)NC(=O)OCc1cccc(Cl)c1` (stereo partly drawn) [Compound C82, 3-Chlorobenzyl ((2S)-1-((3-(8-acetyl-2-oxo-1,8-diazaspiro[4.5]decan-3-yl)-1-(diethoxyphosphoryl)-1-hydroxypropan-2-yl)amino)-3-(3-fluorophenyl)-1-oxopropan-2-yl)carbamate] gave an IC50 of 4400 nM.
`CC1(C)CC(C[C@H](NC(=O)[C@H](CC2CCCCC2)NC(=O)OC(Cc2cccc(Cl)c2)c2cccc(Cl)c2)C(=O)C(=O)NC2CC2)C(=O)N1` (stereo partly drawn) [Compound C172, 1,2-Bis (3-Chlorophenyl) ethyl ((2S)-3-cyclohexyl-1-((4-(cyclopropylamino)-1-(5,5-dimethyl-2-oxopyrrolidin-3-yl)-3,4-dioxobutan-2-yl)amino)-1-oxopropan-2-yl)carbamate] gave an IC50 of 1670 nM.
In the case of `CC(C)C[C@H](NC(=O)OC(c1ccc(F)cc1)C(C)(C)c1cccc(Cl)c1)C(=O)N[C@@H](C[C@@H]1CCNC1=O)C(=O)C(=O)NC1CC1` (some centres unmarked) [Compound C247], the IC50 is reported as 80 nM.
In the case of `CC(C)C(OC(=O)N[C@@H](CC1CCCCC1)C(=O)N[C@@H](C[C@@H]1CCNC1=O)C(=O)C(N)=O)c1ccccc1` (stereo partly drawn) [Compound C216, 2-Methyl-1-phenylpropyl ((S)-1-(((S)-4-amino-3,4-dioxo-1-((S)-2-oxopyrrolidin-3-yl)butan-2-yl)amino)-3-cyclohexyl-1-oxopropan-2-yl)carbamate], the IC50 is reported as 3100 nM.
Work on `CC(C)C[C@H](NC(=O)OC(C)(C)Cc1ccccc1)C(=O)N[C@@H](C[C@@H]1CCNC1=O)C(O)S(=O)(=O)O` (stereo partly drawn) [Compound C57, (2S)-1-hydroxy-2-((S)-4-methyl-2-((((2-methyl-1-phenylpropan-2-yl)oxy)carbonyl)amino)pentanamido)-3-((S)-2-oxopyrrolidin-3-yl)propane-1-sulfonate] yielded an IC50 of 800 nM.
`CC(C)C[C@H](NC(=O)OC(Cc1ccccc1)c1ccccc1)C(=O)N[C@@H](C[C@@H]1CCNC1=O)C(=O)C(N)=O` (stereo partly drawn) [Compound C100, 1,2-Diphenylethyl ((S)-1-(((S)-4-amino-3,4-dioxo-1-((S)-2-oxopyrrolidin-3-yl)butan-2-yl)amino)-4-methyl-1-oxopentan-2-yl)carbamate] showed an IC50 of 1000 nM.
`O=CC(CC1CC2(CCCCC2)NC1=O)NC(=O)[C@H](CC1CCCCC1)NC(=O)OC1CCCC1Cc1cccc(Cl)c1` (stereo partly drawn) [Compound C223, 2-(3-Chlorobenzyl)cyclopentyl ((2S)-3-cyclohexyl-1-oxo-1-((1-oxo-3-(2-oxo-1-azaspiro[4.5]decan-3-yl)propan-2-yl)amino)propan-2-yl)carbamate] showed an IC50 of 781 nM.
`CC(C)C[C@H](NC(=O)OC1CCCC1Cc1ccccc1)C(=O)N[C@@H](C[C@@H]1CCNC1=O)C(=O)C(N)=O` (stereo partly drawn) [Compound C240, 2-Benzylcyclopentyl ((S)-1-(((S)-4-amino-3,4-dioxo-1-((S)-2-oxopyrrolidin-3-yl)butan-2-yl)amino)-4-methyl-1-oxopentan-2-yl)carbamate] was tested, and the IC50 was 230 nM.
Compound `CCCC[C@H](NC(=O)OC(c1ccccc1)C(C)(C)c1cccc(Cl)c1)C(=O)N[C@@H](CC1CCNC1=O)C(=O)C(=O)NC1CC1` (stereo partly drawn) [Compound C174, 2-(3-Chlorophenyl)-2-methyl-1-phenylpropyl ((S)-1-(((S)-4-(cyclopropylamino)-3,4-dioxo-1-((S)-2-oxopyrrolidin-3-yl)butan-2-yl)amino)-1-oxohexan-2-yl) carbamate] has an IC50 of 8.2 nM.
Compound `CCCC1CCC(OC(=O)N[C@@H](CC(C)C)C(=O)NC(C=O)CC2CC3(CCN(C(C)=O)CC3)NC2=O)CC1` (stereo partly drawn) [Compound C77, 4-Propylcyclohexyl ((2S)-1-((1-(8-acetyl-2-oxo-1,8-diazaspiro[4.5]decan-3-yl)-3-oxopropan-2-yl)amino)-4-methyl-1-oxopentan-2-yl)carbamate] has an IC50 of 600 nM.
Work on `O=C(N[C@@H](CC1CCCCC1)C(=O)N[C@@H](CC1CC2(CCCCC2)NC1=O)C(=O)CO)OCc1cccc(Cl)c1` (stereo partly drawn) [Compound C168, 3-Chlorobenzyl ((2S)-3-cyclohexyl-1-(((2S)-4-hydroxy-3-oxo-1-(2-oxo-1-azaspiro[4.5]decan-3-yl)butan-2-yl)amino)-1-oxopropan-2-yl)carbamate] yielded an IC50 of 5440 nM.
For `CC(C)(c1cccc(Cl)c1)C(OC(=O)N[C@@H](Cc1ccccc1)C(=O)N[C@H](C=O)C[C@@H]1CCNC1=O)c1ccccc1` (some centres unmarked) [Compound C257], the IC50 was over 20000 nM.
`CC(C)(C)C(=O)N1CCC2(CC1)CC(CC(NC(=O)[C@H](CC1CCCCC1)NC(=O)OCc1cccc(Cl)c1)C(=O)C(=O)NC1CC1)C(=O)N2` (stereo partly drawn) [Compound C188, 3-Chlorobenzyl ((2S)-3-cyclohexyl-1-((4-(cyclopropylamino)-3,4-dioxo-1-(2-oxo-8-pivaloyl-1,8-diazaspiro[4.5]decan-3-yl)butan-2-yl)amino)-1-oxopropan-2-yl)carbamate] gave an IC50 of 1890 nM.
Compound `CC(C)C[C@H](NC(=O)OC(c1ccc(Cl)cc1)C(C)(C)c1cccc(Cl)c1)C(=O)N[C@H](C=O)C[C@@H]1CCNC1=O` (some centres unmarked) [Compound C246] has an IC50 of 520 nM.
`CC(C)C[C@H](NC(=O)OC(CCc1ccccc1)c1ccccc1)C(=O)N[C@H](C=O)C[C@@H]1CCNC1=O` (some centres unmarked) [Compound C259] was tested, and the IC50 was 50 nM.
`CC(C)(C)C(=O)N1CCC2(CC1)CC(CC(C=O)NC(=O)[C@H](CC1CCCCC1)NC(=O)OCc1cccc(Cl)c1)C(=O)N2` (stereo partly drawn) [Compound C212, 3-Chlorobenzyl ((2S)-3-cyclohexyl-1-oxo-1-((1-oxo-3-(2-oxo-8-pivaloyl-1,8-diazaspiro[4.5]decan-3-yl)propan-2-yl)amino)propan-2-yl)carbamate] was tested, and the IC50 was 194 nM.
With `CC(C)C[C@H](NC(=O)OCC(C)(C)c1cccc(Cl)c1)C(=O)N[C@@H](C[C@@H]1CCNC1=O)C(O)S(=O)(=O)O` (stereo partly drawn) [Compound C72, Sodium (2S)-2-((S)-2-(((2-(3-chlorophenyl)-2-methylpropoxy)carbonyl)amino)-4-methylpentanamido)-1-hydroxy-3-((S)-2-oxopyrrolidin-3-yl)propane-1-sulfonate] the IC50 was 10 nM.
Compound `CC(C)C[C@H](NC(=O)O[C@H](c1ccccc1)C(C)(C)c1cccc(Cl)c1)C(=O)N[C@H](C=O)C[C@@H]1CCNC1=O` [Compound C276] has an IC50 of 60 nM.
Work on `NC(=O)C(=O)C(CC1CC2(CCCCC2)NC1=O)NC(=O)[C@H](CC1CCCCC1)NC(=O)c1cc2ccccc2[nH]1` (stereo partly drawn) [Compound C119, N-((2S)-1-((4-amino-3,4-dioxo-1-(2-oxo-1-azaspiro[4.5]decan-3-yl)butan-2-yl)amino)-3-cyclohexyl-1-oxopropan-2-yl)-1H-indole-2-carboxamide] yielded an IC50 of 796 nM.
